Among the data in patent US20250206730A1 (AUTOTELIC BIO INC., priority 2022, published 2025) are IC50 values, retold here.

Bounds are passed on as bounds.

The test deals with TGF-β signaling. Description: Assay for evaluating cellular inhibition of TGF-β signaling, 4T1 (SBE-luc2P) luciferase reporter. In kind it is cell-based. The conditions noted are these: Mus musculus, 4T1, 4T1 (SBE-luc2P) transient pool, 0.2% FBS, 2 h pre-treatment, TGF-β1 2 ng/mL 24 h; read-out: IC50 4T1 Cell. How it is done: [Example 2] Assay for Evaluating Cellular Inhibition of TGF-β Signaling
4T1 (SBE-luc2P) transient pool that have SBE-luc2P (hygro) expression plasmid or HEK293 (SBE reporter) stable cells (BPS bioscience) were seeded at 6×10^3 cells/well or 2.5×10^4 cells/well in 96-well plate, respectively. 4T1 (SBE-luc2P) transient pool were pre-treated with novel compound synthesized in Example 1 above in 0.2% FBS at approximately 60% confluence at 37° C. in 5% CO2. Also, HEK293 (SBE reporter) stable cells were pre-treated with each test compounds of formula in 0.5% FBS at approximately 80% confluence at 37° C. in 5% CO2. After 2 hours, cells were treated with TGF-β1 (2 ng/mL) for 24 h at 37° C. in 5% CO2. Cell lysates were prepared using Luciferase Assay (Promega) according to the manufacturer's instruction, and luminescence was measured by a plate reader, Biotek Synergy H1 (Vermont, USA).

As for `CS(=O)(=O)Cc1cccc(Nc2cc(Oc3sc(N)nc3-c3ccccc3)ccn2)c1` [A-19, 5-((2-((3-((Methylsulfonyl)methyl)phenyl)amino)pyridin-4-yl)oxy)-4-phenylthiazol-2-amine], the IC50 was < 0.1 µM.

As to `Cc1nc(-c2ccccc2)c(Oc2ccnc(NCc3ccncc3)c2)s1` [A-80, 4-((2-Methyl-4-phenylthiazol-5-yl)oxy)-N-(pyridin-4-ylmethyl)pyridin-2-amine], the IC50 was > 0.1 µM.

For `Cc1nc(-c2ccccc2)c(Oc2ccnc(NCc3cccc(F)c3)c2)s1` [A-96, N-(3-Fluorobenzyl)-4-((2-methyl-4-phenylthiazol-5-yl)oxy)pyridin-2-amine], the IC50 was > 0.1 µM. Turning to `Cc1cccc(-c2nc(C)sc2Oc2ccnc(Nc3cccc(CCC#N)c3)c2)n1` [A-306, 3-(3-((4-((2-Methyl-4-(6-methylpyridin-2-yl)thiazol-5-yl)oxy)pyridin-2-yl)amino)phenyl)propanenitrile], the IC50 was < 0.1 µM. As for `CNS(=O)(=O)c1cccc(Nc2cc(Oc3sc(N)nc3-c3ccccc3)ccn2)c1` [A-12, 3-((4-((2-Amino-4-phenylthiazol-5-yl)oxy)pyridin-2-yl)amino)-N-methylbenzenesulfonamide], the figure is < 0.1 µM; as for `Cn1cc(Nc2cc(Oc3sc(N)nc3-c3ccccc3)ccn2)cn1` [A-37, 5-((2-((1-Methyl-1H-pyrazol-4-yl)amino)pyridin-4-yl)oxy)-4-phenylthiazol-2-amine], > 0.1 µM; as for `Cc1nc(-c2ccccc2)c(Oc2ccnc(Nc3cnn(S(=O)(=O)C4CC4)c3)c2)s1` [A-98, N-(1-(Cyclopropylsulfonyl)-1H-pyrazol-4-yl)-4-((2-methyl-4-phenylthiazol-5-yl)oxy)pyridin-2-amine], > 0.1 µM. As for `CS(=O)(=O)c1cccc(Nc2cc(Oc3sc(N)nc3-c3ccccc3)ccn2)c1` [A-15, 5-((2-((3-(Methylsulfonyl)phenyl)amino)pyridin-4-yl)oxy)-4-phenylthiazol-2-amine], the figure is < 0.1 µM. As for `Cc1nc(-c2ccccc2)c(Oc2ccnc(Nc3ccc(Cl)nc3)c2)s1` [A-84, N-(6-Chloropyridin-3-yl)-4-((2-methyl-4-phenylthiazol-5-yl)oxy)pyridin-2-amine], the figure is > 0.1 µM; as for `Cc1nc(-c2ccccc2)c(Oc2ccnc(Nc3ccnc(C(N)=O)c3)c2)s1` [A-102, 4-((4-((2-Methyl-4-phenylthiazol-5-yl)oxy)pyridin-2-yl)amino)picolinamide], > 0.1 µM.

In the case of `Cc1nc(-c2ccccc2)c(Oc2ccnc(Nc3cccnc3)c2)s1` [A-82, 4-((2-Methyl-4-phenylthiazol-5-yl)oxy)-N-(pyridin-3-yl)pyridin-2-amine], the IC50 is > 0.1 µM. As for `Nc1nc(-c2ccccc2)c(Oc2ccnc(Nc3cccc(S(=O)(=O)C(F)(F)F)c3)c2)s1` [A-17, 4-Phenyl-5-((2-((3-((trifluoromethyl)sulfonyl)phenyl)amino)pyridin-4-yl)oxy)thiazol-2-amine], the figure is > 0.1 µM; as for `Nc1nc(-c2ccccc2)c(Oc2ccnc(Nc3ccncc3)c2)s1` [A-8, 4-Phenyl-5-((2-(pyridin-4-ylamino)pyridin-4-yl)oxy)thiazol-2-amine], > 0.1 µM; as for `CS(=O)(=O)n1cc(Nc2cc(Oc3sc(N)nc3-c3ccccc3)ccn2)cn1` [A-62, 5-((2-((1-(Methylsulfonyl)-1H-pyrazol-4-yl)amino)pyridin-4-yl)oxy)-4-phenylthiazol-2-amine], > 0.1 µM. As for `Cc1cccc(-c2nc(C)sc2Oc2ccnc(Nc3cccc(Cc4nnn[nH]4)c3)c2)n1` [A-305, N-(3-((1H-Tetrazol-5-yl)methyl)phenyl)-4-((2-methyl-4-(6-methylpyridin-2-yl)thiazol-5-yl)oxy)pyridin-2-amine], the figure is > 0.1 µM; as for `Nc1nc(-c2ccccc2)c(Oc2cc(Nc3cccc(S(N)(=O)=O)c3)ncn2)s1` [A-239, 3-((6-((2-Amino-4-phenylthiazol-5-yl)oxy)pyrimidin-4-yl)amino)benzenesulfonamide], < 0.1 µM. The result for `Nc1nc(-c2ccccc2)c(Oc2ccnc(Nc3cccc(NS(=O)(=O)C4CC4)c3)c2)s1` [A-16, N-(3-((4-((2-Amino-4-phenylthiazol-5-yl)oxy)pyridin-2-yl)amino)phenyl)cyclopropanesulfonamide] reads < 0.1 µM; that for `Nc1nc(-c2ccccc2)c(Oc2ccnc(Nc3cccc(NS(=O)(=O)C(F)(F)F)c3)c2)s1` [A-36, N-(3-((4-((2-Amino-4-phenylthiazol-5-yl)oxy)pyridin-2-yl)amino)phenyl)-1,1,1-trifluoromethanesulfonamide], < 0.1 µM; that for `COc1cc(Nc2cc(Oc3sc(C)nc3-c3ccccc3)ccn2)ccc1N1CCN(C)CC1` [A-106, N-(3-Methoxy-4-(4-methylpiperazin-1-yl)phenyl)-4-((2-methyl-4-phenylthiazol-5-yl)oxy)pyridin-2-amine], < 0.1 µM. With `NC(=O)c1ccnc(Nc2cc(Oc3sc(N)nc3-c3ccccc3)ccn2)c1` [A-22, 2-((4-((2-Amino-4-phenylthiazol-5-yl)oxy)pyridin-2-yl)amino)isonicotinamide], the IC50 was < 0.1 µM. As for `Cc1nc(-c2ccccc2)c(Oc2ccnc(NCc3ccccc3)c2)s1` [A-94, N-Benzyl-4-((2-methyl-4-phenylthiazol-5-yl)oxy)pyridin-2-amine], the figure is > 0.1 µM; as for `Cc1nc(-c2ccccc2)c(Oc2ccnc(Nc3cn[nH]c3)c2)s1` [A-100, 4-((2-Methyl-4-phenylthiazol-5-yl)oxy)-N-(1H-pyrazol-4-yl)pyridin-2-amine], < 0.1 µM.

On to `Nc1nc(-c2ccccc2)c(Oc2ccnc(Nc3cccnc3)c2)s1` [A-6, 4-Phenyl-5-((2-(pyridin-3-ylamino)pyridin-4-yl)oxy)thiazol-2-amine], for which the IC50 is > 0.1 µM. For the compound `Cc1nc(-c2ccccc2)c(Oc2ccnc(Nc3cccc(C(N)=O)n3)c2)s1` [A-101, 6-((4-((2-Methyl-4-phenylthiazol-5-yl)oxy)pyridin-2-yl)amino)picolinamide], the IC50 was < 0.1 µM.

For the compound `Cc1cccc(-c2nc(C)sc2Oc2ccnc(Nc3cccc(CCc4nn[nH]n4)c3)c2)n1` [A-307, N-(3-(2-(2H-tetrazol-5-yl)ethyl)phenyl)-4-((2-methyl-4-(6-methylpyridin-2-yl)thiazol-5-yl)oxy)pyridin-2-amine], the IC50 is < 0.1 µM. The result for `COc1ccc(Nc2cc(Oc3sc(N)nc3-c3ccccc3)ccn2)cn1` [A-31, 5-((2-((6-Methoxypyridin-3-yl)amino)pyridin-4-yl)oxy)-4-phenylthiazol-2-amine] reads > 0.1 µM; that for `Cc1nc(-c2ccccc2)c(Oc2ccnc(Nc3cccc(C(=O)N(C)C)c3)c2)s1` [A-67, N,N-Dimethyl-3-((4-((2-methyl-4-phenylthiazol-5-yl)oxy)pyridin-2-yl)amino)benzamide], < 0.1 µM; that for `Nc1nc(-c2ccccc2)c(Oc2ccnc(NCc3cccc(F)c3)c2)s1` [A-21, 5-((2-((3-Fluorobenzyl)amino)pyridin-4-yl)oxy)-4-phenylthiazol-2-amine], > 0.1 µM. The result for `Cc1nc(-c2ccccc2)c(Oc2cc(Nc3cccc(S(N)(=O)=O)c3)ncn2)s1` [A-237, 3-((6-((2-Methyl-4-phenylthiazol-5-yl)oxy)pyrimidin-4-yl)amino)benzenesulfonamide] reads > 0.1 µM; that for `Nc1nc(-c2ccccc2)c(Oc2ccnc(Nc3cccc(S(=O)(=O)NC4CC4)c3)c2)s1` [A-20, 3-((4-((2-Amino-4-phenylthiazol-5-yl)oxy)pyridin-2-yl)amino)-N-cyclopropylbenzenesulfonamide], < 0.1 µM; that for `Cc1nc(-c2ccccc2)c(Oc2ccnc(Nc3cnn(C)c3)c2)s1` [A-99, N-(1-Methyl-1H-pyrazol-4-yl)-4-((2-methyl-4-phenylthiazol-5-yl)oxy)pyridin-2-amine], < 0.1 µM. The result for `Nc1nc(-c2ccccc2)c(Oc2ccnc(NCc3cccnc3)c2)s1` [A-28, 4-Phenyl-5-((2-((pyridin-3-ylmethyl)amino)pyridin-4-yl)oxy)thiazol-2-amine] reads > 0.1 µM; that for `Nc1nc(-c2ccccc2)c(Oc2ccnc(Nc3ccc(Cl)nc3)c2)s1` [A-35, 5-((2-((6-Chloropyridin-3-yl)amino)pyridin-4-yl)oxy)-4-phenylthiazol-2-amine], > 0.1 µM; that for `Cc1nc(-c2ccccc2)c(Oc2ccnc(Nc3ccnc(Cl)c3)c2)s1` [A-89, N-(2-Chloropyridin-4-yl)-4-((2-methyl-4-phenylthiazol-5-yl)oxy)pyridin-2-amine], < 0.1 µM. Turning to `CCS(=O)(=O)c1cccc(Nc2cc(Oc3sc(N)nc3-c3ccccc3)ccn2)c1` [A-34, 5-((2-((3-(Ethylsulfonyl)phenyl)amino)pyridin-4-yl)oxy)-4-phenylthiazol-2-amine], the IC50 was < 0.1 µM.

For `Nc1nc(-c2ccccc2)c(Oc2ccnc(Nc3cn[nH]c3)c2)s1` [A-38, 5-((2-((1H-Pyrazol-4-yl)amino)pyridin-4-yl)oxy)-4-phenylthiazol-2-amine], the IC50 was > 0.1 µM. As for `Cc1nc(-c2ccccc2)c(Oc2ccnc(NCc3cccnc3)c2)s1` [A-81, 4-((2-Methyl-4-phenylthiazol-5-yl)oxy)-N-(pyridin-3-ylmethyl)pyridin-2-amine], the figure is > 0.1 µM; as for `O=S(=O)(Nc1cccc(Nc2cc(Oc3sc(C4CC4)nc3-c3ccccc3)ccn2)c1)C(F)(F)F` [A-123, N-(3-((4-((2-Cyclopropyl-4-phenylthiazol-5-yl)oxy)pyridin-2-yl)amino)phenyl)-1,1,1-trifluoromethanesulfonamide], < 0.1 µM.
